Reference: patent publication US12404239B2, “Modulators of BCL6 as ligand directed degraders” (Celgene Corporation, priority 2022, dated 2025)

Molecular target: T1, BCL6 (Homo sapiens, UniProt P41182)
T1 construct: HiBiT-tag knocked into endogenous BCL6 locus using CRISPR; endogenous in cells; host or cells: DHL-4_BCL6_HiBiT cells (CRISPR knock-in)
Assay: BCL6_HiBiT degradation assay (2 h)
Type: cell-based
Conditions: DHL-4_BCL6_HiBiT cells; for Percent BCL6 remaining at maximal degradation (Ycon): read-out: YCon (% remaining maximal effect)
Procedure: A DHL-4 cell line with HiBiT-tag knocked into endogenous BCL6 locus using CRISPR was generated. The DHL-4_BCL6_HiBiT cells were dispensed into 384-well plates (Corning no. 3570) that were pre-spotted with compounds. Compounds were dispensed by an acoustic dispenser (ATS acoustic transfer system from EDC Biosystems) into a 384-well plate in a 10-point dose response curve using 3-fold dilutions starting at 1-10 μM and going down to […]. 25 μL of media (RPMI-1640+10% heat inactivated FBS+1×Pen/Strep) containing 2500 of DHL-4 was dispensed per well. Assay plates were incubated at 37° C. with 5% CO2 for 2 hours. After incubation, 25 μL of the Nano-Glo HiBiT lytic detection working solution (Promega, catalogue no. N3040, Madison, WI) was added to each well and incubated at room temperature for 15-30 min, protected from light. After 30 min, luminescence was read on an Envision or PHERAstar luminescence reader. To determine the EC50 value (the half-maximum effective concentration) and the level of the gradation (Yconstant) of a BCL6 degrader, luminescent signal normalized by DMSO control (Y) and compound concentration (x) was fitted using a four-parameter dose-response model (Y=(A+((B−A)/1+((C/x)^D) in Dotmatics. Fitted value C is the degradation EC50 and the minimum value A is the Y constant.
The degradation of BCL6 at 2 h in DHL-4 results are shown in Table 5, where EC50 is the half maximal effect and Ycon is the % remaining maximal effect.

Row | Structure (SMILES) | Percent BCL6 remaining at maximal degradation (Ycon) [%] | YCon (% remaining maximal effect)
1 | CCN1C(=O)Cc2cc(Nc3nc(N4CCC(Nc5ccc6c([C@H]7CCC(=O)NC7=O)nn(C)c6c5)CC4)ncc3Cl)ccc21 (single isomer, unassigned) [Example 90] | > 60 | –
2 | CN1C(=O)Cc2cc(Nc3nc(N4CC[C@@H](Nc5ccc6c(C7CCC(=O)NC7=O)nn(C)c6c5)[C@@H](C(F)(F)F)C4)ncc3Cl)ccc21 (single isomer, unassigned) [Example 148] | > 60 | –
3 | CNCCN1C(=O)Cc2cc(Nc3nc(N4CC[C@@H](Nc5ccc6c([C@H]7CCC(=O)NC7=O)nn(C)c6c5)[C@H](C)C4)ncc3Cl)ccc21 (single isomer, unassigned) [Example 105] | < 20 | –
4 | Cn1nc(C2CCC(=O)NC2=O)c2ccc(NC3CCN(c4ncc(Cl)c(Nc5ccc6c(c5)N(CCC(C)(C)O)C(=O)C6)n4)CC3)cc21 (stereo not shown) [Example 9, 3-[6-[[1-[5-Chloro-4-[[1-(3-hydroxy-3-methyl-butyl)-2-oxo-indolin-6-yl]amino]pyrimidin-2-yl]-4-piperidyl]amino]-1-methyl-indazol-3-yl]piperidine-2,6-dione] | > 60 | –
5 | C[C@@H]1CN(c2ncc(Cl)c(Nc3ccc4c(c3)CC(=O)N4CCN3CCOCC3)n2)CC[C@H]1Nc1ccc2c([C@H]3CCC(=O)NC3=O)nn(C)c2c1 (single isomer, unassigned) [Example 102] | < 20 | –
6 | C[C@H]1CN(c2ccc3c(C4CCC(=O)NC4=O)nn(C)c3c2)C[C@H](C)N1c1ncc(Cl)c(Nc2ccc3c(c2)CC(=O)N3C)n1 (stereo partly drawn) [Example 29, 3-(6-((3S,5S)-4-(5-chloro-4-((1-methyl-2-oxoindolin-5-yl)amino)pyrimidin-2-yl)-3,5-dimethylpiperazin-1-yl)-1-methyl-1H-indazol-3-yl)piperidine-2,6-dione] | < 20 | –
7 | C[C@@H]1CN(c2ncc(Cl)c(Nc3ccc4c(c3F)CC(=O)N4C)n2)CC[C@H]1Nc1ccc2c(N3CCC(=O)NC3=O)nn(C)c2c1 [Example 142, 1-(6-(((3R,4R)-1-(5-chloro-4-((4-fluoro-1-methyl-2-oxoindolin-5-yl)amino)pyrimidin-2-yl)-3-methylpiperidin-4-yl)amino)-1-methyl-1H-indazol-3-yl)dihydropyrimidine-2,4(1H,3H)-dione] | < 20 | –
8 | CN1C(=O)Cc2cc(Nc3nc(N4CC[C@@H](Nc5ccc6c(C7CCC(=O)NC7=O)nn(C)c6c5)[C@@H](F)C4)ncc3Cl)ccc21 (stereo partly drawn) [Example 44, 3-(6-(((3S,4R)-1-(5-chloro-4-((1-methyl-2-oxoindolin-5-yl)amino)pyrimidin-2-yl)-3-fluoropiperidin-4-yl)amino)-1-methyl-1H-indazol-3-yl)piperidine-2,6-dione] | > 60 | –
9 | CN1C(=O)Cc2cc(Nc3nc(N4CCC(Nc5ccc6c(C7CCC(=O)NC7=O)nn(C)c6c5)CC4)ncc3Cl)ccc21 (stereo not shown) [Example 52, 3-(6-((1-(5-chloro-4-((1-methyl-2-oxoindolin-5-yl)amino)pyrimidin-2-yl)piperidin-4-yl)amino)-1-methyl-1H-indazol-3-yl)piperidine-2,6-dione] | 20 to 60 | –
10 | C[C@@H]1CN(c2ncc(Cl)c(Nc3ccc4c(c3)CC(=O)N4C)n2)CC[C@H]1Nc1ccc2c(C3CCC(=O)NC3=O)nn(C)c2c1 (stereo partly drawn) [Example 70, 3-(6-(((3R,4R)-1-(5-chloro-4-((1-methyl-2-oxoindolin-5-yl)amino)pyrimidin-2-yl)-3-methylpiperidin-4-yl)amino)-1-methyl-1H-indazol-3-yl)piperidine-2,6-dione] | < 20 | –
11 | CN1C(=O)Cc2cc(Nc3nc(N4CCC(Nc5ccc6c(N7CCC(=O)NC7=O)nn(C)c6c5)C(F)(F)C4)ncc3Cl)ccc21 (stereo not shown) [Example 65, 1-(6-((1-(5-chloro-4-((1-methyl-2-oxoindolin-5-yl)amino)pyrimidin-2-yl)-3,3-difluoropiperidin-4-yl)amino)-1-methyl-1H-indazol-3-yl)dihydropyrimidine-2,4(1H,3H)-dione] | > 60 | –
12 | C[C@H]1CN(c2ccc3c(C4CCC(=O)NC4=O)nn(C)c3c2)C(=O)C[C@H]1N(C)c1ncc(Cl)c(Nc2ccc3c(c2)CC(=O)N3C)n1 (stereo partly drawn) [Example 149, 3-(6-((4R,5S)-4-((5-chloro-4-((1-methyl-2-oxoindolin-5-yl)amino)pyrimidin-2-yl)(methyl)amino)-5-methyl-2-oxopiperidin-1-yl)-1-methyl-1H-indazol-3-yl)piperidine-2,6-dione] | 20 to 60 | –
13 | CC1CN(c2ncc(Cl)c(Nc3ccc4c(c3)CC(=O)N4C)n2)CCCC1Nc1ccc2c(C3CCC(=O)NC3=O)nn(C)c2c1 (single isomer, unassigned) [Example 51, 3-(6-((1-(5-chloro-4-((1-methyl-2-oxoindolin-5-yl)amino)pyrimidin-2-yl)-3-methylazepan-4-yl)amino)-1-methyl-1H-indazol-3-yl)piperidine-2,6-dione] | – | ^^ (20-60%)
14 | C[C@@H]1CN(c2ncc(Cl)c(Nc3ccc4c(c3)CC(=O)N4C)n2)C[C@@H](C)N1c1ccc2c(C3CCC(=O)NC3=O)nn(C)c2c1 (stereo partly drawn) [Example 78, 3-(6-((2R,6R)-4-(5-chloro-4-((1-methyl-2-oxoindolin-5-yl)amino)pyrimidin-2-yl)-2,6-dimethylpiperazin-1-yl)-1-methyl-1H-indazol-3-yl)piperidine-2,6-dione] | 20 to 60 | –
15 | C[C@@H]1CN(c2ncc(Cl)c(Nc3cc4c(cc3F)N(C)C(=O)C4)n2)CC[C@H]1Nc1ccc2c(C3CCC(=O)NC3=O)nn(C)c2c1 (stereo partly drawn) [Example 92, 3-(6-(((3R,4R)-1-(5-chloro-4-((6-fluoro-1-methyl-2-oxoindolin-5-yl)amino)pyrimidin-2-yl)-3-methylpiperidin-4-yl)amino)-1-methyl-1H-indazol-3-yl)piperidine-2,6-dione] | < 20 | –
16 | C[C@@H]1CN(c2ncc(Cl)c(Nc3cc(F)c4c(c3)CC(=O)N4C)n2)CC[C@H]1Nc1ccc2c([C@@H]3CCC(=O)NC3=O)nn(C)c2c1 (single isomer, unassigned) [Example 97] | < 20 | –
17 | C[C@@H]1CN(c2ncc(Cl)c(Nc3ccc4c(c3)CC(=O)N4C)n2)CC[C@H]1Nc1ccc2c(C3(C)CCC(=O)NC3=O)nn(C)c2c1 (stereo partly drawn) [Example 85, 3-(6-(((3R,4R)-1-(5-chloro-4-((1-methyl-2-oxoindolin-5-yl)amino)pyrimidin-2-yl)-3-methylpiperidin-4-yl)amino)-1-methyl-1H-indazol-3-yl)-3-methylpiperidine-2,6-dione] | < 20 | –
18 | CN1C(=O)Cc2cc(Nc3nc(N4CCN(c5ccc6c(C7CCC(=O)NC7=O)nn(C)c6c5)C(=O)C4)ncc3Cl)ccc21 (stereo not shown) [Example 37, 3-(6-(4-(5-chloro-4-((1-methyl-2-oxoindolin-5-yl)amino)pyrimidin-2-yl)-2-oxopiperazin-1-yl)-1-methyl-1H-indazol-3-yl)piperidine-2,6-dione] | > 60 | –
19 | CCN1C(=O)Cc2cc(Nc3nc(N4CCC(Nc5ccc6c(N7CCC(=O)NC7=O)nn(C)c6c5)CC4)ncc3Cl)ccc21 [Example 144, 1-(6-((1-(5-chloro-4-((1-ethyl-2-oxoindolin-5-yl)amino)pyrimidin-2-yl)piperidin-4-yl)amino)-1-methyl-1H-indazol-3-yl)dihydropyrimidine-2,4(1H,3H)-dione] | > 60 | –
